From patent US12486264B2, “Bicyclic HPK1 inhibitors” (Janssen Pharmaceutica NV, priority 2019, dated 2025)

Tests used:
[1] = target: T1, full-length human Hpk1 (Homo sapiens, UniProt Q92918); test: HPK1 kinase assay (ADP Glo); assay type: biochemical; details: GST-Hpk1, 75 μM ATP solution added, ADP Glo luminescence; for IC50: read-out: Hpk1 biochemical (pIC50) (converted)
T1 construct: full-length human Hpk1 with an N-terminal Glutatione S-transferase (GST) tag; GST (N); made in house; host or cells: baculovirus/insect cell expression system
T1 sequence (Q92918 whole entry): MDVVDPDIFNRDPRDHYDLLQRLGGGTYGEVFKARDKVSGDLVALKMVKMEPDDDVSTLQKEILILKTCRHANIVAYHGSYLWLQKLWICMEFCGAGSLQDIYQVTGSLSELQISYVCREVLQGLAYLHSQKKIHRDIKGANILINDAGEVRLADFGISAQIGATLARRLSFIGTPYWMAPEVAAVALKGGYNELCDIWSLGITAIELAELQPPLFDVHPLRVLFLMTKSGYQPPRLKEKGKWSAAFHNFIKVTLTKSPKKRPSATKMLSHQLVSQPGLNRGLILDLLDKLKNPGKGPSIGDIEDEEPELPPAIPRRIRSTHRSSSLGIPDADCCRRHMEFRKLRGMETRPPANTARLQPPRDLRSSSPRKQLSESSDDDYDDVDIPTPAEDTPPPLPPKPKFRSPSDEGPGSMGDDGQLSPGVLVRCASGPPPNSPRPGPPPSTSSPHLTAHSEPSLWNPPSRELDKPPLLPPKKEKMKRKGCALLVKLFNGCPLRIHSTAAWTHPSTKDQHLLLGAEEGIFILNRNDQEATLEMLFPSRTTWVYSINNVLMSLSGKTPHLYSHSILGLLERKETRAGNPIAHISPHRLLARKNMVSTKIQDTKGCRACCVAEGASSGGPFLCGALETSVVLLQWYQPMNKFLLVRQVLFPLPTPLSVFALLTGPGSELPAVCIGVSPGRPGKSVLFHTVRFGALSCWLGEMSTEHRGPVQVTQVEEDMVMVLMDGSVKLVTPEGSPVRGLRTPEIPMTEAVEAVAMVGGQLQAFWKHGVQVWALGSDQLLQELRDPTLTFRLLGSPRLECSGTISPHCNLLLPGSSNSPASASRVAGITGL
Method: A recombinant fusion protein consisting of full-length human Hpk1 with an N-terminal Glutatione S-transferase (GST) tag was produced in a baculovirus/insect cell expression system. GST-Hpk1 protein was purified from cell lysates by glutathione sepharose affinity chromatography. Kinase inhibition was determined using the ADP Glo™ Kinase Assay kit (Promega, V9101). Test compounds were prepared by serial dilution in dimethyl sulfoxide (DMSO) and 0.1 μl of each dilution was spotted onto a 384-well white Proxiplate (Perkin Elmer, 6008289). 8 μl of kinase assay buffer (40 mM Tris pH 7.5, 2 mM dithiothreitol (DTT), 0.05% Bovine Serum Albumin, 5 mM MgCl2) containing Hpk1 protein was transferred to each well and incubated for 30-45 minutes at room temperature. The enzymatic reaction was started by adding 2 μl of kinase assay buffer containing 75 μM ATP. After 120 minutes, the reaction was stopped by adding 3 μl of ADP Glo™ reagent (Promega, V9101) and incubating 45 minutes at room temperature.

[2] = target: T2, Hpk1 (Homo sapiens, UniProt Q92918); test: SLP76 phosphorylation assay (HEK293 cells expressing Hpk1 and SLP76); assay type: cell-based; details: SLP76 phosphorylation at S376, HEK293 cells expressing Hpk1 and SLP76, 4 hours incubation; for IC50: read-out: pSLP76 (HEK293) (pIC50) (converted)
T2 construct: expressed in transfected cells; host or cells: HEK293 cells engineered to express Hpk1 and SLP76
T2 sequence (Q92918 whole entry): as above
Method: Hpk1 inhibition in cells was determined by detection of SLP76 phosphorylation at S376 in lysates from HEK293 cells engineered to express Hpk1 and SLP76. Serial dilutions of test compounds were prepared in cell culture medium and 20 μl was transferred into each well of a 96-well plate containing HEK293 cells in 180 μl of culture medium. After incubation for 4 hours at 37° C./5% CO2, the culture medium was removed, plates were put on ice and cells washed with cold Minimal Essential Medium before lysing in 90 μl of cold Mammalian Protein Extraction Reagent (Thermo Scientific, 78501) for 30 minutes on ice. The cell lysates were transferred to another 96-well plate, centrifuged 10 minutes at 3000 rcf (4° C.) and 30 μl transferred to a 96-well High-bind plate (MSD, L15XB-3). After coating overnight at 4° C., the cell lysate was removed, wells were washed with base buffer (TBS, 0.2% Tween-20), and blocking solution (base buffer containing 3% MSD blocker A) was added to each well for 1 hour at room temperature. The blocking solution was removed, the wells were washed with base buffer, and detection antibody (SLP76 pS376) was added in 25 μl base buffer containing 1% MSD blocker A to each well. After a 2 h incubation at room temperature, the detection antibody was removed, wells were washed four times with base buffer, 25 μl SULFO-TAG labeled goat anti-rabbit secondary antibody (MSD, R32AB-1) in base buffer containing 1% MSD blocker A was added to each well and left for 1 hour at room temperature. Wells were washed 4 times with base buffer, 150 μl Read Buffer T was added to each well, and the plates were read in a Mesoscale plate reader (MSD). IC50 values were determined by curve-fitting the electrochemiluminescent signals obtained from the lysates of HEK293 cells expressing Hpk1 and SLP76 treated with test compounds at various concentrations minus the signal obtained from HEK293 cells expressing SLP76 only.

IC50 [1] [nM] | IC50 [2] [nM] | Hpk1 biochemical (pIC50) [1] | pSLP76 (HEK293) (pIC50) [2] | SMILES
21.9 | 3550 | – | – | CC(C)C(O)CNC(=O)c1c[nH]c2ncc(-c3ccc(C4CCOCC4)c(CN(C)C)c3)cc12 (stereo not shown) [Co. 11]
5.75 | 575 | – | – | CN(C)Cc1cc(-c2cnc3[nH]cc(C(=O)NCC(C)(C)O)c3c2)ccc1C1CCOCC1 [Co. 12]
7.94 | 380 | – | – | CN(C)Cc1cc(-c2cnc3[nH]cc(C(=O)NCC4(CO)CC4)c3c2)ccc1C1CCOCC1 [Co. 15]
53.7 | > 10000 | – | – | CN(C)Cc1cc(-c2cnc3[nH]cc(C(=O)NCC4(CO)COC4)c3c2)ccc1C1CCOCC1 [Co. 16]
10.2 | 1020 | – | – | CN(C)Cc1cc(-c2cnc3[nH]cc(C(=O)NCc4ncco4)c3c2)ccc1C1CCOCC1 [Co. 19]
28.2 | 6920 | – | – | CN(C)Cc1cc(-c2cnc3[nH]cc(C(=O)NCc4nccn4C)c3c2)ccc1C1CCOCC1 [Co. 20a]
93.3 | 7240 | – | – | CN(C)Cc1cc(-c2cnc3[nH]cc(C(=O)N(C)C)c3c2)ccc1C1CCOCC1 [Co. 20b]
33.9 | 9550 | – | – | Cc1nnc(CNC(=O)c2c[nH]c3ncc(-c4ccc(C5CCOCC5)c(CN(C)C)c4)cc23)o1 [Co. 21]
58.9 | 6460 | – | – | Cc1nc(CNC(=O)c2c[nH]c3ncc(-c4ccc(C5CCOCC5)c(CN(C)C)c4)cc23)no1 [Co. 22]
4.47 | 1550 | – | – | CN(C)Cc1cc(-c2cnc3[nH]cc(C(=O)NCc4nccs4)c3c2)ccc1C1CCOCC1 [Co. 24]
38.9 | 4270 | – | – | CN(C)Cc1cc(-c2cnc3[nH]cc(C(=O)NCC4CCC(=O)N4C)c3c2)ccc1C1CCOCC1 (stereo not shown) [Co. 26]
– | – | 7.93 | 5.94 | CC(CO)CNC(=O)c1c[nH]c2ncc(-c3ccc(C4CCOCC4)c(CN(C)C)c3)cc12 (stereo not shown) [Co. 27]
15.8 | 2140 | – | – | COCC(C)(O)CNC(=O)c1c[nH]c2ncc(-c3ccc(C4CCOCC4)c(CN(C)C)c3)cc12 (stereo not shown) [Co. 30]
66.1 | 1580 | – | – | CC(=O)N(C)CCNC(=O)c1c[nH]c2ncc(-c3ccc(C4CCOCC4)c(CN(C)C)c3)cc12 [Co. 32]
21.9 | 1660 | – | – | CN(C)Cc1cc(-c2cnc3[nH]cc(C(NCc4ncco4)C(F)(F)F)c3c2)ccc1C1CCOCC1 (stereo not shown) [Co. 37]

The remaining lines, values behind:

SMILES | IC50 [1] [nM] | IC50 [2] [nM] | Hpk1 biochemical (pIC50) [1] | pSLP76 (HEK293) (pIC50) [2]
CC(C)[C@H](CO)CNC(=O)c1c[nH]c2ncc(-c3ccc(C4CCOCC4)c(CN(C)C)c3)cc12 (single isomer, unassigned) [Co. 31a] | 3.39 | 257 | – | –
CC(C)[C@@H](CO)CNC(=O)c1c[nH]c2ncc(-c3ccc(C4CCOCC4)c(CN(C)C)c3)cc12 (single isomer, unassigned) [Co. 31b] | 26.3 | 1320 | – | –
Cc1c[nH]c2ncc(-c3ccc(C4CCOCC4)c([C@@H]4CCCN4)c3)cc12 [Co. 1] | 1.86 | 288 | – | –
Cc1cc2cc(-c3ccc(C4CCOCC4)c(C4CCCN4)c3)cnc2[nH]1 (stereo not shown) [Co. 2] | 145 | 6760 | – | –
N#Cc1c[nH]c2ncc(-c3ccc(C4CCOCC4)c(C4CCCN4)c3)cc12 (stereo not shown) [Co. 3] | 3.16 | 257 | – | –
N#CCc1c[nH]c2ncc(-c3ccc(C4CCOCC4)c([C@@H]4CCCN4)c3)cc12 [Co. 4] | 11.2 | 120 | – | –
c1cc2cc(-c3ccc(C4CCOCC4)c(C4CCCN4)c3)cnc2[nH]1 (stereo not shown) [Co. 6] | 30.2 | 389 | – | –
Cc1c[nH]c2ncc(-c3ccc(C4CCOCC4)c([C@@H]4COCCN4)c3)cc12 [Co. 8] | 4.47 | 112 | – | –
CN(C)Cc1cc(-c2cnc3[nH]cc(C(=O)NCC(CO)C4CC4)c3c2)ccc1C1CCOCC1 (stereo not shown) [Co. 13] | 12 | 759 | – | –
CN(C)Cc1cc(-c2cnc3[nH]cc(C(=O)NCC4(CO)CCCC4)c3c2)ccc1C1CCOCC1 [Co. 17] | 3.8 | 251 | – | –
CN(C)Cc1cc(-c2cnc3[nH]cc(C(=O)N[C@@H]4CCC[C@@H]4O)c3c2)ccc1C1CCOCC1 [Co. 18] | 2.88 | 263 | – | –
CN(C)Cc1cc(-c2cnc3[nH]cc(C(=O)NCC4(O)CCCC4)c3c2)ccc1C1CCOCC1 [Co. 23] | 10.5 | 1580 | – | –
CN(C)Cc1cc(-c2cnc3[nH]cc(C(=O)NCCNC(=O)C(F)F)c3c2)ccc1C1CCOCC1 [Co. 29] | 12.3 | 1550 | – | –
CN(C)Cc1cc(-c2cnc3[nH]cc(C(=O)NS(=O)(=O)C4CC4)c3c2)ccc1C1CCOCC1 [Co. 33] | 9.12 | > 10000 | – | –
CC(C)C(CO)CNCc1c[nH]c2ncc(-c3ccc(C4CCOCC4)c(CN(C)C)c3)cc12 (stereo not shown) [Co. 34] | 324 | > 10000 | – | –
c1coc(CNCc2c[nH]c3ncc(-c4ccc(C5CCOCC5)c(C5CCCN5)c4)cc23)n1 (stereo not shown) [Co. 35] | 22.9 | 3020 | – | –
CC(C)C(CO)CNC(c1c[nH]c2ncc(-c3ccc(C4CCOCC4)c(CN(C)C)c3)cc12)C(F)(F)F (stereo not shown) [Co. 36] | 40.7 | 2630 | – | –
